The subject of data set [1] is primary heart muscle cells from newborn rats. Description: Inhibitory activity on heart muscle cell apoptosis (serum-free culture, viable cell number by WST-8). It counts as cell-based, Wister rats. The following applies: Rattus norvegicus, 96 h; mean of three independent experiments; concentration required to increase the mean viable cell number by 50% as compared with that in the absence of test compounds; serum-free Medium 199, 4 days. The text has this: Inhibitory Activity on Heart Muscle Cell Apoptosis
Newborn rats (within 1 day afterbirth) were obtained from pregnant Wister rats purchased from Charles River, anesthetized under ether, and sterilized with 70% ethanol, and then their hearts were excised with tweezers. The excised hearts were washed with a phosphate-buffered physiological saline (T900; Takara) and cut into pieces with surgical scissors. These tissue pieces were washed 4 to 5 times with a phosphate-buffered physiological saline to remove a majority of blood-derived non-heart muscle cells. To the tissue pieces derived from 10 newborns, 5 ml of enzyme solution (1.25 mg trypsin (Difco) and 0.25 mg collagenase (Sigma) per ml of phosphate-buffered saline (PBS)) was added and the mixture was stirred with a stirrer at 37° C. for 15 minutes. Another 2.5 ml enzyme solution was then added twice repeatedly at a 15-minutes interval. Then, Medium 199 (Gibco) containing 10% fetal calf serum (Biowiker) was added in a half volume of the enzyme solution to terminate the enzyme reaction. The cells were filtered through a Cell Strainer (Falcon) and then centrifuged at 400×g for 5 minutes, whereby the cells were collected.
The cells thus collected from 10 newborns were suspended in 50 ml Medium 199 containing 10% fetal calf serum, plated onto 100 mm Petri dishes (Iwaki) in a volume of 10 ml/dish and cultured for 1 hour in a CO2 incubator set at 5% CO2 and 37° C. The cells were then recovered, filtered through a Cell Strainer and centrifuged at 400×g for 5 minutes to collect the primary heart muscle cells derived from newborn rats.
Then, the heart muscle cells from 10 newborn rats were suspended in 2 ml low-isotonic solution (prepared by dissolving 8.29 g NH4Cl, 1.0 g KHCO3, 37 mg EDTA/2Na (ethylenediaminetetraacetic acid disodium) (Dojindo) in 1 L of water) and left for 3 minutes to disrupt erythrocytes. After 10 ml Medium 199 containing 10% fetal calf serum was added thereto, the primary heart muscle cells from newborn rats were collected by centrifugation at 400×g for 5 minutes. The cells were suspended in Medium 199 containing 10% fetal calf serum and then filtered through a cell strainer. After 0.3% trypan blue was added to, and mildly mixed with, an aliquot of the resulting cell suspension, the number of heart muscle cells was counted on an erythrocyte counting plate.
The primary heart muscle cells from newborn rats were suspended at a density of 3×10^6 cells/ml in Medium 199 containing 10% fetal calf serum, put onto a 96-well plate in a volume of 0.1 ml/well, and then cultured in a CO2 incubator set at 5% CO2 and 37° C. After the plate was stirred with a micromixer (Taiyo Kagaku Kogyo), the medium was exchanged 3 times with serum-free Medium 199, and then test compounds were added thereto. The cells were cultured for additional 4 days to induce apoptosis. Then, fetal calf serum was added thereto at a concentration of 10%, and the cells were further cultured for about 17 hours in a CO2 incubator set at 5% CO2 and 37° C. Finally, the number of viable cells was determined with Cell Counting Kit (Dojindo) using WST-8 (2-(2-methoxy-4-nitrophenyl)-3-(4-nitrophenyl)-5-(2,4-disulfophenyl)-2H-tetrazolium, monosodium salt) as the coloring substrate to determine the inhibition of the heart muscle cell apoptosis.
The above-mentioned experiment was triplicated in an independent manner.
The Mean minimal effective concentration (±SD) was shown for each test compound (Compounds 1 to 5 obtained in Reference Examples) in Table 1. In Table 1, the minimal effective concentration is defined as the concentration required to increase the mean viable cell number by 50% as compared with that in the absence of test compounds.
Background: Tetrazolium assays rely on reduction of a dye to a coloured formazan, in cell work by metabolically active cells.

Structures are written as SMILES.

Usually minimal effective concentration stands for the lowest level tested that produced the effect sought. The melting point is the temperature of the solid-liquid transition. Compound `O=c1nc(-c2cnccn2)sc2ccccc12` [Example 7, 2-Pyrazinyl-4H-1,3-benzothiazine-4-one] gave a melting point of 240.7 to 241.7 °C. In addition, the minimal effective concentration in data set [1] was found to be 0.021 µM.
In the same order, the values of `CCCNC(=O)c1cccc(-c2nc(=O)c3ccccc3s2)n1` [Example 50, 6-(4-Oxo-4H-1,3-benzothiazin-2-yl)-N-propyl-2-pyridinecarboxamide] are 179.7 to 181.4 °C and 0.02 µM.
For `CN(C(=O)C1CCCCC1)c1cccc(-c2nc(=O)c3ccccc3s2)n1` [Example 115, N-methyl-N-[6-(4-oxo-4H-1,3-benzothiazin-2-yl)-2-pyridyl]cyclohexanecarboxamide] the same measures were 184.4 to 185.8 °C and 0.052 µM.
In turn, `O=C(O)CCOCCCc1ccc(-c2nc(=O)c3ccccc3s2)nc1` [Example 99, 3-{3-[6-(4-Oxo-4H-1,3-benzothiazin-2-yl)-3-pyridyl]propoxy}propionic acid] showed a melting point of 145.2 to 146.6 °C. Besides, the minimal effective concentration in data set [1] was 0.043 µM.
For `NC(=O)c1cccc(-c2nc(=O)c3ccccc3s2)n1` [Example 38, 6-(4-Oxo-4H-1,3-benzothiazin-2-yl)-2-pyridinecarboxamide] the same measures were 294.6 to 294.9 °C and 0.013 µM.
For `CN(C(=O)c1ccccc1)c1cccc(-c2nc(=O)c3ccccc3s2)n1` [Example 113, N-Methyl-N-[6-(4-oxo-4H-1,3-benzothiazin-2-yl)-2-pyridyl]benzamide] the same measures were 234 to 235.4 °C and 0.022 µM.
In the same order, the values of `O=c1nc(-c2cc[n+]([O-])cc2)sc2ccccc12` [Example 55] are 248.2 to 251.7 °C and 0.016 µM.
Regarding `COc1ccc2c(=O)nc(-c3ccccn3)sc2c1` [Example 54, 7-methoxy-2-(2-pyridyl)-4H-1,3-benzothiazine-4-one], the melting point was in the range of 200 to 202.2 °C. In data set [1], the minimal effective concentration stood at 0.037 µM.
In the same order, the values of `O=c1nc(-c2cccc(OCc3ccccc3)n2)sc2ccccc12` [Example 57, 2-[6-(Benzyloxy)-2-pyridyl]-4H-1,3-benzothiazine-4-one] are 240.9 to 241 °C and 0.033 µM.
For `O=c1nc(-c2cccc(CO)n2)sc2ccccc12` [Example 40, 2-[6-(Hydroxymethyl)-2-pyridyl]-4H-1,3-benzothiazine-4-one] the same measures were 208.2 to 208.7 °C and 0.044 µM.
Turning to `O=c1nc(-c2ccc(CO)cn2)sc2ccccc12` [Example 48, 2-[5-(hydroxymethyl)-2-pyridyl]-4H-1,3-benzothiazine-4-one], the melting point was in the range of 246.9 to 247.9 °C. The minimal effective concentration in data set [1] worked out at 0.043 µM.
For `O=C(O)CCOCCCc1cccc(-c2nc(=O)c3ccccc3s2)n1` [Example 67, 3-{3-[6-(4-Oxo-4H-1,3-benzothiazin-2-yl)-2-pyridyl]propoxy}propionic acid], the melting point fell in the range of 141 to 142 °C. The minimal effective concentration in data set [1] was found to be 0.031 µM.
For `CC(C)(C)OC(=O)c1cccc(-c2nc(=O)c3ccccc3s2)n1` [Example 80, tert-Butyl 6-(4-oxo-4H-1,3-benzothiazin-2-yl)-2-pyridinecarboxylate] the same measures were 185 to 185.5 °C and 0.035 µM.
In the same order, the values of `CC(C)(C)OC(=O)NCCCCCCNC(=O)c1cccc(-c2nc(=O)c3ccccc3s2)n1` [Example 106, tert-Butyl [[[6-(4-oxo-4H-1,3-benzothiazin-2-yl)-2-pyridyl]carbonyl]amino]hexylcarbamate] are 145.1 to 145.4 °C and 0.052 µM.
On to `CC(C)(C)Sc1cccc(-c2nc(=O)c3ccccc3s2)n1` [Example 128, 2-[6-(tert-Butylthio)-2-pyridyl]-4H-1,3-benzothiazine-4-one], for which the melting point was 152.9 to 153.8 °C. In data set [1], this compound showed a minimal effective concentration of 0.081 µM.
In the same order, the values of `CCOc1cccc(-c2nc(=O)c3ccccc3s2)n1` [Example 134, 2-(6-Ethoxy-2-pyridyl)-4H-1,3-benzothiazine-4-one] are 179.5 to 180 °C and 0.095 µM.
In the same order, the values of `COc1cc(-c2nc(=O)c3ccccc3s2)ccn1` [Example 70, 2-(2-Methoxy-4-pyridyl)-4H-1,3-benzothiazine-4-one] are 148.8 to 150.5 °C and 0.017 µM.
Compound `CN(C(=O)c1ccco1)c1cccc(-c2nc(=O)c3ccccc3s2)n1` [Example 112, N-Methyl-N-[6-(4-oxo-4H-1,3-benzothiazin-2-yl)-2-pyridyl]-2-furamide] yielded a melting point of 186.2 to 187.2 °C. The same compound showed a minimal effective concentration in data set [1] of 0.051 µM.
In the same order, the values of `Cc1ccc2c(=O)nc(-c3ccccn3)sc2c1` [Example 39, 7-Methyl-2-(2-pyridyl)-4H-1,3-benzothiazine-4-one] are 225 to 225.2 °C and 0.037 µM.
In the same order, the values of `CCCNC(=O)c1ccc(-c2nc(=O)c3ccccc3s2)nc1` [Example 37, 6-(4-Oxo-4H-1,3-benzothiazin-2-yl)-N-propylnicotinamide] are 268 to 268.6 °C and 0.037 µM.
For `CC(C)Sc1cccc(-c2nc(=O)c3ccccc3s2)n1` [Example 127, 2-[6-(Isopropylthio)-2-pyridyl]-4H-1,3-benzothiazine-4-one] the same measures were 185.4 to 185.8 °C and 0.04 µM.
The compound `O=c1nc(-c2ccnc(Cl)c2)sc2ccccc12` [Example 76, 2-(2-Chloro-4-pyridyl)-4H-1,3-benzothiazine-4-one] yielded a melting point of 177.8 to 178.4 °C. The minimal effective concentration in data set [1] stood at 0.036 µM.
`O=C(O)c1cccc(-c2nc(=O)c3ccccc3s2)n1` [Example 81, 6-(4-Oxo-4H-1,3-benzothiazin-2-yl)-2-pyridinecarboxylic acid]: the melting point is 260.2 to 260.5 °C. The minimal effective concentration in data set [1] was 0.012 µM.
In the same order, the values of `O=c1nc(-c2cnccn2)sc2cc(Cl)ccc12` [Example 30, 7-Chloro-2-(2-pyrazyl)-4H-1,3-benzothiazine-4-one] are 240.6 to 240.9 °C and 0.012 µM.
In the same order, the values of `Cc1ccc(S(=O)(=O)c2cccc(-c3nc(=O)c4ccccc4s3)n2)cc1` [Example 64, 2-{6-[(4-Methylphenyl)sulfonyl]-2-pyridyl}-4H-1,3-benzothiazine-4-one] are 219.6 °C (dec.) and 0.052 µM.

These data come from patent US7767665B2, “1,3-benzothiazinone derivatives and use thereof” (Takeda Pharmaceutical Company Limited, priority 2001, dated 2010).
